Data reported in US9284325B2, “Spectinamides as anti-tuberculosis agents” (UNIVERSITY OF TENNESSEE RESEARCH FOUNDATION, priority 2009, dated 2016).
Counter-ions that a name gives are not always drawn.

Experiments:
M. tuberculosis H37Rv = test: MIC determination by microbroth dilution, anti-tuberculosis activity; type: cell-based, Mycobacterium tuberculosis; details: Mycobacterium tuberculosis, H37RV, 168 h; read-out: MIC
[1] = tested on: S. aureus 8325 or strain ATCC 29213; test: MIC determination by microbroth dilution; type: cell-based, Staphylococcus aureus; details: Staphylococcus aureus, ATCC29213; S. aureus 8325 or strain ATCC 29213 (for 1471-1544)
[2] = tested on: Strep. pyogenes ATCC 700294; test: MIC determination by microbroth dilution; type: cell-based, Streptococcus pyogenes; details: Streptococcus pyogenes, ATCC700294, read-out: MIC S. pyogenes
[3] = tested on: Strep. pneumoniae DAW27 or strain R6; test: MIC determination by microbroth dilution; type: cell-based, Streptococcus pneumoniae; details: Streptococcus pneumoniae; Strep. pneumoniae DAW27 or strain R6 (for 1443-1544); read-out: MIC S. pneumoniae
E. faecalis ATCC 33186 = test: MIC determination by microbroth dilution; type: cell-based, Enterococcus faecalis; details: Enterococcus faecalis, ATCC33186
B. anthracis Sterne 34F2 = test: microbe, parasite or virus in culture; type: cell-based, Bacillus anthracis; details: Bacillus anthracis, STERNE34F2, read-out: MIC B. anthracis 34F2
[4] = tested on: Burkholderia cepacia ATCC 25416; test: MIC determination by microbroth dilution; type: cell-based; details: ATCC25416, read-out: MIC B. cepcia
[5] = tested on: Proteus mirabilis ATCC 25933; test: MIC determination by microbroth dilution; type: cell-based; details: ATCC25933
[6] = tested on: Proteus vulgaris ATCC 33420; test: MIC determination by microbroth dilution; type: cell-based; details: ATCC33420
[7] = tested on: Klebsiella pneumoniae ATCC 33495; test: MIC determination by microbroth dilution; type: cell-based; details: ATCC33495
[8] = tested on: Acinetobacter baumannii ATCC 19606; test: MIC determination by microbroth dilution; type: cell-based; details: ATCC19606
P. aeruginosa PAO1 = test: MIC determination by microbroth dilution; type: cell-based, Pseudomonas aeruginosa; details: Pseudomonas aeruginosa
[9] = tested on: Strenotrophomonas maltophilia ATCC 13637; test: MIC determination by microbroth dilution; type: cell-based
E. coli K12 = test: MIC determination by microbroth dilution; type: cell-based, Escherichia coli; details: Escherichia coli, K12
E. coli K12 ΔtolC = test: microbe, parasite or virus in culture; type: cell-based; details: Escherichia coli, read-out: MIC E. coli K12 ΔtolC
E. coli ribosomes = type: biochemical; details: for IC50, 50% inhibition of luciferase biosynthesis in S30 assay: E. coli S30 transcription/translation assay

Compound | MIC (M. tuberculosis H37Rv) | MIC [1] | MIC [2] | MIC [3] | MIC (E. faecalis ATCC 33186) | MIC (B. anthracis Sterne 34F2) | MIC [4] | MIC [5] | MIC [6] | MIC [7] | MIC [8] | MIC (P. aeruginosa PAO1) | MIC [9] | MIC (E. coli K12) | MIC (E. coli K12 ΔtolC) | IC50, 50% inhibition of luciferase biosynthesis in S30 assay (E. coli ribosomes) | relative inhibitory activity on luciferase production (E. coli ribosomes; tested at 0.66 and 6.6 μM, FIG. 5)
CN[C@@H]1[C@H](O)[C@H](NC)C2O[C@]3(O)C(OC2[C@H]1O)O[C@H](C)C[C@H]3NC(=O)Cc1ccncc1 (stereo partly drawn) [Compound 1413, 3′-Dihydro-3′-deoxy-4(R)-(pyridin-4-yl)acetylamino spectinomycin Dihydrochloride] | 100 µg/mL | 50 µg/mL | 200 µg/mL | > 200 µg/mL | > 200 µg/mL | 200 µg/mL | > 200 µg/mL | > 200 µg/mL | > 200 µg/mL | > 200 µg/mL | > 200 µg/mL | > 200 µg/mL | > 200 µg/mL | 200 µg/mL | 50 µg/mL | 1.92 µg/mL | –
CN[C@@H]1[C@H](O)[C@H](NC)C2O[C@]3(O)C(OC2[C@H]1O)O[C@H](C)C[C@H]3NC(=O)Cc1ccc(F)cn1 (stereo partly drawn) [Compound 1445, 3′-Dihydro-3′-deoxy-4(R)-(5-fluoropyridin-2-yl)acetylamino spectinomycin trihydrobromide] | 0.4 µg/mL | 25 µg/mL | 12.5 µg/mL | 12.5 µg/mL | 25 µg/mL | 25 µg/mL | > 200 µg/mL | > 200 µg/mL | > 200 µg/mL | 100 µg/mL | > 200 µg/mL | > 200 µg/mL | > 200 µg/mL | 100 µg/mL | 200 µg/mL | 0.25 µg/mL | –
CN[C@@H]1[C@H](O)[C@H](NC)C2O[C@]3(O)C(OC2[C@H]1O)O[C@H](C)C[C@H]3NC(=O)Cc1ccccc1OC (stereo partly drawn) [Compound 1448, 3′-Dihydro-3′-deoxy-4(R)-(2-methoxy-phenyl)acetylamino spectinomycin Dihydrochloride] | 200 µg/mL | > 200 µg/mL | 25 µg/mL | 25 µg/mL | > 200 µg/mL | > 200 µg/mL | 200 µg/mL | > 200 µg/mL | > 200 µg/mL | > 200 µg/mL | > 200 µg/mL | > 200 µg/mL | > 200 µg/mL | > 200 µg/mL | > 200 µg/mL | 2.41 µg/mL | –
CN[C@@H]1[C@H](O)[C@H](NC)C2O[C@]3(O)C(OC2[C@H]1O)O[C@H](C)C[C@H]3NC(=O)CC(C)C (stereo partly drawn) [Compound 1369, 3′-Dihydro-3′-deoxy-4(R)-(3-methyl)-butanoylamino spectinomycin Dihydrochloride] | 200 µg/mL | > 200 µg/mL | > 200 µg/mL | > 200 µg/mL | > 200 µg/mL | 200 µg/mL | > 200 µg/mL | > 200 µg/mL | > 200 µg/mL | > 200 µg/mL | > 200 µg/mL | > 200 µg/mL | > 200 µg/mL | > 200 µg/mL | > 200 µg/mL | – | less active than 1329
CN[C@@H]1[C@H](O)[C@H](NC)C2O[C@]3(O)C(OC2[C@H]1O)O[C@H](C)C[C@H]3NC(=O)Cc1ccc(F)cc1 (stereo partly drawn) [Compound 1367, 3′-Dihydro-3′-deoxy-4(R)-(4-fluoro-phenyl)-acetylamino spectinomycin Dihydrochloride] | 3.1 µg/mL | 50 µg/mL | 50 µg/mL | 50 µg/mL | 200 µg/mL | 50 µg/mL | > 200 µg/mL | > 200 µg/mL | > 200 µg/mL | > 200 µg/mL | > 200 µg/mL | 100 µg/mL | > 200 µg/mL | 200 µg/mL | 50 µg/mL | 1.05 µg/mL | –
